# Measured values as given in ChEMBL document CHEMBL1649521, “Influence of the cytochrome P450 2B6 genotype on population pharmacokinetics of efavirenz in human immunodeficiency virus patients” (Antimicrob Agents Chemother, 2009).
# Columns and labels:
# [1] = Apparent oral volume of distribution in patient with HIV infection at 600 mg/kg QD; type: ADME, organism-based; design: dose 600 mg/kg, route oral; conditions: human, in vivo, read-out: Vc/F
# [2] = Apparent oral clearance in patient with HIV infection at 600 mg/kg, […] QD; type: ADME, organism-based; design: dose 600 mg/kg, route oral; conditions: human, in vivo
structure (smiles),measurement,setting,value
O=C1Nc2ccc(Cl)cc2[C@@](C#CC2CC2)(C(F)(F)F)O1 [EFAVIRENZ],Vd/F,[1],295 L
same,CL/F,[2],154 mL/min
